Source: patent publication US9919998B2, “Antibacterial agents: Nα-aroyl-N-aryl-phenylalaninamides” (priority 2014, dated 2018)
≈ marks a conversion by molar mass, not a printed value. Where “and” joins values, the source holds several entries; their conditions need not be identical. Equal entries are not always repeated. Where two headings read alike, the source gives them in different places.

How the values were obtained:
[1] = molecular target: Mycobacterium tuberculosis RNA polymerase (Mycobacterium tuberculosis, UniProt P9WGY7+P9WGY9); assay: Run-off transcription assay with Mycobacterium tuberculosis RNA polymerase (radiochemical); format: biochemical
Mycobacterium tuberculosis RNA polymerase, sequence (P9WGZ1 whole entry, the tested form may be a part): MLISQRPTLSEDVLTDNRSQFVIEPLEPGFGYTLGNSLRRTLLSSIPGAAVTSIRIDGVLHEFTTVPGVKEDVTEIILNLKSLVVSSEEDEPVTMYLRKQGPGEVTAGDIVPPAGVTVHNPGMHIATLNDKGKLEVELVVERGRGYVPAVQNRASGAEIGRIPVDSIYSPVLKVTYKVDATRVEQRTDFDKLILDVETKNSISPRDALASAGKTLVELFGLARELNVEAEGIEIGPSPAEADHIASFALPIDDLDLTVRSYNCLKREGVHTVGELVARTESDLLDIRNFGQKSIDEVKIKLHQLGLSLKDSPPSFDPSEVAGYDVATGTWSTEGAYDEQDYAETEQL
Mycobacterium tuberculosis RNA polymerase, sequence (P9WGY5 whole entry, further chain, the tested form may be a part): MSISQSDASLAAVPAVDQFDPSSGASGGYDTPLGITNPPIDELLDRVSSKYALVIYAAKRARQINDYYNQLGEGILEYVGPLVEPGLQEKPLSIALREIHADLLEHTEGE
Mycobacterium tuberculosis RNA polymerase, sequence (P9WGY9 whole entry, the tested form may be a part): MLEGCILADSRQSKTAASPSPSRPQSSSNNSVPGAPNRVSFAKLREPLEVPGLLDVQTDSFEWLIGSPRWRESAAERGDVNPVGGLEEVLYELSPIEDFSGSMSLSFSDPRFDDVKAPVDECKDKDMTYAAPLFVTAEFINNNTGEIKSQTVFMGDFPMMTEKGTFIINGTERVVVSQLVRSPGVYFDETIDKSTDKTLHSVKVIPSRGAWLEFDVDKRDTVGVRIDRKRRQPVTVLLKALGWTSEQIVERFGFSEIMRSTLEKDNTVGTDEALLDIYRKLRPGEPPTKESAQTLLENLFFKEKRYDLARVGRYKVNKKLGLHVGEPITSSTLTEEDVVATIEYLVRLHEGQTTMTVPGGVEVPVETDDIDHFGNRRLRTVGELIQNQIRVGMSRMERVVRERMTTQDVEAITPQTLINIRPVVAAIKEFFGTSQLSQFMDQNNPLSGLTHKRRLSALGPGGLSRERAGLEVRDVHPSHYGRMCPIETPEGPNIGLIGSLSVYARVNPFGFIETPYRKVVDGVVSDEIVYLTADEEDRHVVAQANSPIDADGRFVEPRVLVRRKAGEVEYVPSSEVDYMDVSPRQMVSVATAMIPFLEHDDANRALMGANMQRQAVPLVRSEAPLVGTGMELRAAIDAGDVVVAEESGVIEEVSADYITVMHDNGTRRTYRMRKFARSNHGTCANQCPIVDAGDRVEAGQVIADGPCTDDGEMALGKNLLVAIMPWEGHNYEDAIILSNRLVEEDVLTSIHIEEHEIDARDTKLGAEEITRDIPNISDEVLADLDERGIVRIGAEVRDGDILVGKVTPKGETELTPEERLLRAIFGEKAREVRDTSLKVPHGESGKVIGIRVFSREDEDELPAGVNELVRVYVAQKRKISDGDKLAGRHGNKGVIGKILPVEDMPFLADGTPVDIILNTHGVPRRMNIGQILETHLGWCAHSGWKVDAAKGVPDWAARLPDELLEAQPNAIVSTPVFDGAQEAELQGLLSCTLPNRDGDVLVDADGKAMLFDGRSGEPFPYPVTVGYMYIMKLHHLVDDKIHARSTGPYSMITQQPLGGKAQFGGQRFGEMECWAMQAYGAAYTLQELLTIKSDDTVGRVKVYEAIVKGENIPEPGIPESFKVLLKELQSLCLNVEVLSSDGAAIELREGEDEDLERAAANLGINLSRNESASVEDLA
Mycobacterium tuberculosis RNA polymerase, sequence (P9WGI1 whole entry, further chain, the tested form may be a part): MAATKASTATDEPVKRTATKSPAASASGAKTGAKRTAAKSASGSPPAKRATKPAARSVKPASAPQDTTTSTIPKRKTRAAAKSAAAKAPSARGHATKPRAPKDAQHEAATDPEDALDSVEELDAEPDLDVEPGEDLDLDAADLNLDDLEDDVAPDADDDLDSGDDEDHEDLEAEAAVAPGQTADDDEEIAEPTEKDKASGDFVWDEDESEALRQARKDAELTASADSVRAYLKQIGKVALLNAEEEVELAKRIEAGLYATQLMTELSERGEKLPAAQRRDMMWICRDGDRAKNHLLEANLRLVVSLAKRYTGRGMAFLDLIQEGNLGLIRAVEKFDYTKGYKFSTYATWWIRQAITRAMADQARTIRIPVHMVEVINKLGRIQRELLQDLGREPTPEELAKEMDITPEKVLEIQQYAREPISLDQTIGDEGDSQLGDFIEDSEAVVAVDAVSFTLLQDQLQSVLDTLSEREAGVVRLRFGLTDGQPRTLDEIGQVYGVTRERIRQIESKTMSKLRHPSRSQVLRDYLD
Mycobacterium tuberculosis RNA polymerase, sequence (P9WGY7 whole entry, the tested form may be a part): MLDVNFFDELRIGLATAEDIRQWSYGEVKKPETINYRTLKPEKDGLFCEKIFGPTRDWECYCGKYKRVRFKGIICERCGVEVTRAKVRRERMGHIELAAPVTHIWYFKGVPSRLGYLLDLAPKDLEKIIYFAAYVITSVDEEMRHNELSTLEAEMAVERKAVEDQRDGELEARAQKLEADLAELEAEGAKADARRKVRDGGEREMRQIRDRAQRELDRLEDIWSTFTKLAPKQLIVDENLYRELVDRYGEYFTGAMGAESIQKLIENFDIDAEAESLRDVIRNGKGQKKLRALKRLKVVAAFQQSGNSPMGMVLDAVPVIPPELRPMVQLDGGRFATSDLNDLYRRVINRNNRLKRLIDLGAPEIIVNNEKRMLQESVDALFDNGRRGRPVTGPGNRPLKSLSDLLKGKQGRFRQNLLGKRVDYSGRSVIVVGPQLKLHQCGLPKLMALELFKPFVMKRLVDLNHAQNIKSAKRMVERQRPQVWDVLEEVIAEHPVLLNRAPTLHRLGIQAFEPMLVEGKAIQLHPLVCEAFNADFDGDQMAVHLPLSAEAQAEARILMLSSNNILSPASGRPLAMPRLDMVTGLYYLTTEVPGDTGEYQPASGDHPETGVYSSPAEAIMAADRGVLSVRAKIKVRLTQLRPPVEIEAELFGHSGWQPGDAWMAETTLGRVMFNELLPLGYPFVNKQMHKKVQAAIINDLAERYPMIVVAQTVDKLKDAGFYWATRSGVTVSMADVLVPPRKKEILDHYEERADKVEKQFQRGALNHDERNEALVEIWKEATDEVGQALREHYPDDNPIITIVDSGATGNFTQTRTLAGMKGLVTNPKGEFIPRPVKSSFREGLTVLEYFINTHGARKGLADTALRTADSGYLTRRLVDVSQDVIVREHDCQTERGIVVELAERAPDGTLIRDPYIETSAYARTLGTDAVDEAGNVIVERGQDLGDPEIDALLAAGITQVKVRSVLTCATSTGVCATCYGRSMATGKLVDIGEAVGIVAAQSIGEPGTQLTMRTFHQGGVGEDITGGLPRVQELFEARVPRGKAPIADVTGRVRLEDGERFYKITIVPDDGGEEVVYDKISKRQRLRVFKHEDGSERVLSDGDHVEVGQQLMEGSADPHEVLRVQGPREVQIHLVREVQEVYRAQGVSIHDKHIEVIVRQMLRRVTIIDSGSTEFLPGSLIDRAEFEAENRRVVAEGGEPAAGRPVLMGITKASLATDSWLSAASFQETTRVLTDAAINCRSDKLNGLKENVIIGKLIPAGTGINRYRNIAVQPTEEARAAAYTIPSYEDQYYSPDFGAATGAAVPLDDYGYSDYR
Method: Run-off transcription assays with Mycobacterium tuberculosis RNA polymerase were performed using reaction mixtures containing (10 μl): 0-100 μM test compound, 75 nM Mycobacterium tuberculosis RNA polymerase core enzyme, 300 nM Mycobacterium tuberculosis σ^A, 20 nM 130 bp DNA fragment containing positions −100 to −1 of the bacteriophage […] N25 promoter followed by positions +1 to +30 of the lacUV5-15 promoter of [Mukhopadhyay, J., Kapanidis, A., Mekler, V., Kortkhonjia, E., Ebright, Y., Ebright, R. (2001) Cell 106, 453-463], 25 nM [alpha-^32P]UTP (600 Bq/pmol) for an initial 2 min at 37° C. and 100 μM [alpha-^32P]UTP (6 Bq/pmol) for a subsequent 5 min at 37° C., 100 μM ATP, 100 μM GTP, 100 μM UTP, 100 μM CTP, 40 mM Tris-HCl, pH 8.0, 80 mM NaCl, 5 mM MgCl2, 2.5 mM DTT, and 12.7% glycerol. Reactions were terminated by addition of […] 80% formamide, 10 mM EDTA, 0.04% bromophenol blue, and 0.04% xylene cyanol, followed by heating for 5 min at 90° C. Reaction products were resolved by 15% urea-PAGE, and quantified using a storage-phosphor scanner.

[2] = tested on: Mycobacterium tuberculosis H37Rv; assay: Microplate Alamar Blue assay (MABA) MIC, M. tuberculosis; format: cell-based
Description: (§1) Minimal inhibitory concentrations (MICs) in Mycobacterium tuberculosis H37Rv and Mycobacterium avium ATCC 25291 were quantified using microplate Alamar Blue assays as described (MABA; [Collins, L. & Franzblau, S. (1997) Microplate Alamar Blue assay versus BACTEC 460 system for high-throughput screening of compounds against Mycobacterium tuberculosis and Mycobacterium avium. Antimicrob. Agents Chemother. 41, 1004-1009]).

[3] = tested on: Mycobacterium smegmatis ATCC 19420; assay: Broth microdilution MIC, M. smegmatis; format: cell-based; conditions: Mycolicibacterium smegmatis
Description: (§2) MICs in Mycobacterium smegmatis ATCC 19420 and Mycobacterium smegmatis ATCC 19420 derivatives were quantified using broth microdilution assays as described [Clinical and Laboratory Standards Institute (CLSI/NCCLS) (2009) Methods for Dilution Antimicrobial Susceptibility Tests for Bacteria That Grow Aerobically; Approved Standard, Eighth Edition. CLIS Document M07-A8 (CLIS, Wayne Pa.)].

[4] = tested on: Vero E6 ATCC CRL1586 cells; assay: Mammalian-cell cytotoxicity, minimal cytotoxic concentration (CellTiter96); format: cell-based
Method: Minimal cytotoxic concentrations (MCCs) against mammalian cells in culture were determined using Vero E6 ATCC CRL1586 cells and the CellTiter96 assay kit (Promega, Inc.). […]

[5] = tested on: Mycobacterium avium ATCC 25291; assay: Microplate Alamar Blue assay (MABA) MIC, M. avium; format: cell-based; conditions: ATCC25291, M. avium ATCC 25291
Description: as §1

[6] = tested on: rifampin-resistant mutants, derivatives of M. smegmatis ATCC19420; assay: MICs in rifampin-resistant mutants (cross-resistance levels); format: cell-based, Mycobacterium smegmatis
Description: as §2

[7] = Inhibition of mycobacterial RNA polymerase (IC50s), radiochemical transcription assays, M. tuberculosis RNA polymerase
[8] = MABA-MIC assays, read-out: Inhibition of mycobacterial growth in culture (MICs)
[9] = ATCC19420, broth microdilution assays, M. smegmatis ATCC19420, read-out: Inhibition of mycobacterial growth in culture (MICs)
[10] = IC50 Mycobacterium tuberculosis RNA polymerase
[11] = read-out: MIC Mycobacterium tuberculosis H37Rv
[12] = ATCC19420, M. smegmatis ATCC 19420, read-out: MIC Mycobacterium smegmatis ATCC 19420

SMILES | IC50 ([1]; radiochemical transcription assays, M. tuberculosis RNA polymerase, read-out: Inhibition of mycobacterial RNA polymerase (IC50s)) | IC50 [1, 7] [nM] | MIC [2, 8] [µg/mL] | MIC [3, 9] [µg/mL] | IC50 [1, 10] [nM] | MIC [2, 11] [µg/mL] | MIC [3, 12] [µg/mL] | MCC mammalian cells Vero E6 ATCC CRL1586 [4] [µg/mL] | MIC [5] [µg/mL] | cross-resistance of rifampin-resistant mutants to the compound [6]
O=C(Nc1ccccn1)[C@H](Cc1ccccc1)Nc1ccccc1 | ≥ 100 nM and ~1000 nM |  |  |  |  |  |  |  |  | 
Cc1ccccc1NC(=O)[C@@H](Cc1ccccc1)NC(=O)c1ccccc1 [AAP1a, Nα-benzoyl-N-(2-methylphenyl)-D-phenylalaninamide] |  | 130 | 3.13 (≈ 8.73 µM) | 0.2 (≈ 0.558 µM) |  |  |  |  |  | 
Cc1ccccc1NC(=O)[C@H](Cc1ccccc1)NC(=O)c1ccccc1 [AAP1b, Nα-benzoyl-N-(2-methylphenyl)-L-phenylalaninamide] |  | 12000 | > 50 | 1.56 (≈ 4.35 µM) |  |  |  |  |  | 
Cc1ccc(NC(=O)C(Cc2ccccc2)NC(=O)c2ccco2)cc1 (stereo not drawn) [AAP2] |  | 5300 | 50 (≈ 144 µM) |  |  |  |  |  |  | 
Cc1ccccc1NC(=O)C(Cc1cccc(O)c1)NC(=O)c1ccccc1 (stereo not drawn) [I-12] |  |  |  |  | 3500 | > 50 | 3.12 (≈ 8.35 µM) | >100 |  | 
Cc1ccc(F)cc1NC(=O)C(Cc1ccccc1)NC(=O)c1ccccc1 (stereo not drawn) [I-75] |  |  |  |  | 990 | 1.56 (≈ 4.14 µM) | 0.195 (≈ 0.518 µM) | 4 | 1.56 (≈ 4.14 µM) | 
Cc1ccccc1NC(=O)C(Cc1ccccc1)NC(=O)c1ccccc1F (stereo not drawn) [I-80] |  |  |  |  | 2800 | 3.12 (≈ 8.29 µM) | 0.39 (≈ 1.04 µM) | 43 | 6.25 (≈ 16.6 µM) | No rifampin-resistant mutant was found to exhibit cross-resistance
CCc1ccccc1NC(=O)C(Cc1ccccc1)NC(=O)c1ccccc1 (stereo not drawn) [I-115] |  |  |  |  |  | > 50 | 0.39 (≈ 1.05 µM) | 37 | > 50 | No rifampin-resistant mutant was found to exhibit cross-resistance
Cc1c(NC(=O)C(Cc2ccccc2)NC(=O)c2ccccc2)cccc1C(F)(F)F (stereo not drawn) [I-160] |  |  |  |  |  | > 50 | 3.12 (≈ 7.33 µM) | 21 | > 50 | No rifampin-resistant mutant was found to exhibit cross-resistance
O=C(NC(Cc1ccccc1)C(=O)Nc1ccccc1N1CCOCC1)c1ccccc1 (stereo not drawn) [I-181] |  |  |  |  | 400 | 0.78 (≈ 1.82 µM) | 0.073 (≈ 0.17 µM) | >100 | 6.25 (≈ 14.6 µM) | 
Cc1ncccc1NC(=O)C(Cc1ccccc1)NC(=O)c1ccccc1 (stereo not drawn) [II-5] |  |  |  |  |  | 50 (≈ 139 µM) | 3.12 (≈ 8.68 µM) | >36 | > 50 | No rifampin-resistant mutant was found to exhibit cross-resistance
Cc1ccccc1NC(=O)C(Cc1ccccc1)NC(=O)c1ccccn1 (stereo not drawn) [II-12] |  |  |  |  |  | 25 (≈ 69.6 µM) | 3.12 (≈ 8.69 µM) | >36 | 50 (≈ 139 µM) | No rifampin-resistant mutant was found to exhibit cross-resistance
O=C(NC(Cc1ccccc1)C(=O)Nc1cccc2cc[nH]c12)c1ccccc1 (stereo not drawn) [II-28] |  |  |  |  |  | 12.5 (≈ 32.6 µM) | 0.78 (≈ 2.03 µM) | 13 | > 50 | No rifampin-resistant mutant was found to exhibit cross-resistance
